This is an account of results in patent US8921559B2, “4-substituted-cyclohexylamino-4-piperidinyl-acetamide antagonists of CCR2” (Janssen Pharmaceutica NV, priority 2010, dated 2014).

Each structure is given as a SMILES string. Where a name gives a salt, the structure may show the parent alone.

CCR2, sequence (P41597 other isoform, or with tags, fused parts or gaps isoform P41597-2): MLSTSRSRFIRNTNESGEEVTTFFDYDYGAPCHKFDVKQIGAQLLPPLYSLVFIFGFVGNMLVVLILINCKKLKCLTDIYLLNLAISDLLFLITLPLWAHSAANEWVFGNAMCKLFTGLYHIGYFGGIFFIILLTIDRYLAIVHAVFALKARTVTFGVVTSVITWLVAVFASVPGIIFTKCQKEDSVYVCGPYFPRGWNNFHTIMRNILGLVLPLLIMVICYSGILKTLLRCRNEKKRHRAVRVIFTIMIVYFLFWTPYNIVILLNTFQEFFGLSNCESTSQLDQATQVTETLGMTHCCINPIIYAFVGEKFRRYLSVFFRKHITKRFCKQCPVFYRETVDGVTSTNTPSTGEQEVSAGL

This test has as its target CCR2 (Homo sapiens (Human), UniProt P41597). As to the kind of experiment: MCP-1 Receptor Binding Assay in THP-1 Cells. The following applies: 0.5 nM 125I labeled MCP-1, 2 hours at 30° C., average of the two most similar values where more than one IC50, read-out: Inhibition of MCP-1 Binding IC50 CCR2 Binding. As for the experimental part: Compounds of the invention were subjected to various representative biological tests. […] MCP-1 Receptor Binding Assay in THP-1 Cells Human monocytic cell line THP-1 cells were obtained from American Type Culture Collection (Manassas, Va., USA). The THP-1 cells were grown in RPMI-1640 (RPMI: Roswell Park Memorial Institute Medium-cell culture growth media) supplemented with 10% fetal bovine serum in a humidified 5% CO2 atmosphere at 37° C. The cell density was maintained between […].
THP-1 (cells were incubated with 0.5 nM ^125I labeled MCP-1 (Perkin-Elmer Life Sciences, Inc. Boston, Mass.) in the presence of varying concentrations of either unlabeled MCP-1 (R & D Systems, Minneapolis, Minn.) or test compound for 2 hours at 30° C. in a 96 well plate. Cells were then harvested onto a filter plate, dried, and 20 μL of Microscint 20 was added to each well. Plates were counted in a TopCount NXT, Microplate Scintillation & Luminescence Counter (Perkin-Elmer Life Sciences, Inc. Boston, Mass.). Blank values (buffer only) were subtracted from all values and drug treated values were compared to vehicle treated values. 1 μM cold MCP-1 was used for nonspecific binding.
`NC(=O)C(NC1CCC(c2c[nH]c3ccccc23)CC1)C1CCN(C(=O)/C=C/c2ccc(F)cc2)CC1` (stereo not drawn) [Example 6, 2-[4-(1H-Indol-3-yl)-cyclohexylamino]-2-[1-(trans-4-fluorocinnamoyl)-piperidin-4-yl]-acetamide]: the 50% inhibitory concentration (IC50) (as a rule, the concentration that inhibits the measured activity by half) came to 19 nM.

Consider `NC(=O)C(NC1CCC(c2c[nH]c3ccccc23)CC1)C1CCN(C(=O)/C=C/c2cccc(F)c2)CC1` (stereo not drawn) [Example 7, 2-[4-(1H-Indol-3-yl)-cyclohexylamino]-2-[1-(trans-3-fluorocinnamoyl)-piperidin-4-yl]-acetamide], for which the half-maximal inhibitory concentration (IC50) amounted to 23 nM.

`NC(=O)C(NC1CCC(c2c[nH]c3cccnc23)CC1)C1CCN(C(=O)/C=C/c2cc(F)c(F)c(F)c2)CC1` (single isomer, unassigned) [Example 39a, 2-[4-(1H-pyrrolo[3,2-b]pyridin-3-yl)cyclohexyl]amino-2-[1-(trans-3,4,5-trifluorocinnamoyl)-piperidin-4-yl]-acetamide]: the half-maximal inhibitory concentration (IC50) worked out at 25 nM.

Regarding `CN(C)C(=O)C(NC1CCC(c2c[nH]c3ccccc23)CC1)C1CCN(C(=O)/C=C/c2cc(F)c(F)c(F)c2)CC1` (stereo not drawn) [Example 54, N,N-Dimethyl-2-{[4-(1H-Indol-3-yl)-cyclohexylamino]-2-[1-(trans-3,4,5-trifluorocinnamoyl)-piperidin-4-yl]}-acetamide], the IC50 stood at 981 nM.

As for `O=C(O)C(N[C@H]1CC[C@@H](c2c[nH]c3ccccc32)CC1)C1CCN(C(=O)Nc2ccc(Cl)c(Cl)c2)CC1` (stereo partly drawn) [Example 28, 2-[4-(1H-Indol-3-yl)-cis-cyclohexylamino]-2-[N-(3,4-dichlorophenyl)-piperidine-1-carboxamid-4-yl]-acetic acid hydrochloride], the 50% inhibitory concentration (IC50) is 320 nM.

On to `NC(=O)C(NC1CCC(c2c[nH]c3ccccc23)CC1)C1CCN(C(=O)Nc2cccc(F)c2)CC1` (stereo not shown) [Example 20, 2-[4-(1H-Indol-3-yl)-cyclohexylamino]-2-[N-(3-fluorophenyl)piperidine-1-carboxamid-4-yl]-acetamide], for which the IC50 is 370 nM.

Turning to `O=C(O)C(N[C@H]1CC[C@H](c2c[nH]c3ccccc32)CC1)C1CCN(C(=O)/C=C/c2cc(F)cc(F)c2)CC1` (stereo partly drawn) [Example 25, 2-[4-(1H-Indol-3-yl)-trans-cyclohexylamino]-2-[1-(trans-3,5-difluorocinnamoyl)-piperidin-4-yl]-acetic acid hydrochloride], the half-inhibitory concentration (IC50) stood at 220 nM.

Turning to `NC(=O)C(NC1CCC(c2c[nH]c3ncccc23)CC1)C1CCN(C(=O)/C=C/c2cc(F)c(F)c(F)c2)CC1` (stereo not drawn) [Example 44, 2-[4-(1H-pyrrolo[2,3-b]pyridin-3-yl)cyclohexyl]amino-2-[1-(trans-3,4,5-trifluorocinnamoyl)-piperidin-4-yl]-acetamide], the concentration for half-maximal inhibition (IC50) turned out to be 132 nM.

Take `NC(=O)C(NC1CCC(c2c[nH]c3ccccc23)CC1)C1CCN(C(=O)Nc2ccc(C(F)(F)F)cc2)CC1` (stereo not shown) [Example 9, 2-[4-(1H-Indol-3-yl)-cyclohexylamino]-2-[N-(4-{trifluoromethyl}-phenyl)piperidine-1-carboxamid-4-yl]-acetamide]: the IC50 is 130 nM.

`NC(=O)C(NC1CCC(c2c[nH]c3ccccc23)CC1)C1CCN(C(=O)Nc2cc(F)cc(F)c2)CC1` (stereo not shown) [Example 30, 2-[4-(1H-Indol-3-yl)-cyclohexylamino]-2-[N-(3,5-difluorophenyl)piperidine-1-carboxamid-4-yl]-acetamide]: the IC50 was determined as 708 nM.

Consider `NC(=O)C(NC1CCC(c2c[nH]c3ccccc23)CC1)C1CCN(C(=O)Nc2ccc(Cl)c(Cl)c2)CC1` (single isomer, unassigned) [Example 4b, 2-[4-(1H-Indol-3-yl)-cyclohexylamino]-2-[N-(3,4-dichlorophenyl)piperidine-1-carboxamid-4-yl]-acetamide], for which the half-maximal inhibitory concentration (IC50) was found to be 8 nM.

As to `NC(=O)C(NC1CCC(c2c[nH]c3cccnc23)CC1)C1CCN(C(=O)/C=C/c2cc(F)cc(F)c2)CC1` (stereo not drawn) [Example 45, R,S-2-[trans-4-(1H-pyrrolo[3,2-b]pyridin-3-yl)cyclohexyl]amino-2-[1-(trans-3,5-difluorocinnamoyl)-piperidin-4-yl]-acetamide], the IC50 turned out to be 130 nM.

With `O=C(O)C(N[C@H]1CC[C@H](c2c[nH]c3ccccc32)CC1)C1CCN(C(=O)/C=C/c2cc(F)c(F)c(F)c2)CC1` (stereo partly drawn) [Example 26, 2-[4-(1H-Indol-3-yl)-cyclohexylamino]-2-[1-(trans-3,4,5-trifluorocinnamoyl)-piperidin-4-yl]-acetic acid hydrochloride], the IC50 worked out at 20 nM.

As to `CSc1cccc(NC(=O)N2CCC(C(NC3CCC(c4c[nH]c5ccccc45)CC3)C(N)=O)CC2)c1` (stereo not shown) [Example 31, 2-[4-(1H-Indol-3-yl)-cyclohexylamino]-2-[N-(3-{methysulfanyl}phenyl)-piperidine-1-carboxamid-4-yl]-acetamide], the IC50 came to 710 nM.

On to `NC(=O)C(NC1CCC(c2c[nH]c3ccccc23)CC1)C1CCN(C(=O)Nc2ccc(OC(F)(F)F)cc2)CC1` (stereo not shown) [Example 11, 2-[4-(1H-Indol-3-yl)-cyclohexylamino]-2-[N-(4-{trifluoromethoxy}-phenyl)piperidine-1-carboxamid-4-yl]-acetamide], for which the IC50 came to 264 nM.

As to `NC(=O)C(NC1CCC(c2c[nH]c3ccccc23)CC1)C1CCN(C(=O)/C=C/c2ccccc2)CC1` (stereo not drawn) [Example 18, 2-[4-(1H-Indol-3-yl)-cyclohexylamino]-2-[1-(trans-cinnamoyl)piperidin-4-yl]-acetamide], the half-inhibitory concentration (IC50) was 190 nM.

For `COC(=O)C(NC1CCC(c2c[nH]c3ccccc23)CC1)C1CCN(C(=O)/C=C/c2cc(F)c(F)c(F)c2)CC1` (stereo not shown) [Example 49b], the half-maximal inhibitory concentration (IC50) turned out to be 750 nM.

`NC(=O)C(NC1CCC(c2c[nH]c3ccccc23)CC1)C1CCN(C(=O)Nc2cccc(C(F)(F)F)c2)CC1` (stereo not shown) [Example 16, 2-[4-(1H-Indol-3-yl)-cyclohexylamino]-2-[N-(3-{trifluoromethyl}-phenyl)piperidine-1-carboxamid-4-yl]-acetamide]: the half-maximal inhibitory concentration (IC50) was 150 nM.

Take `NC(=O)C(NC1CCC(c2c[nH]c3ccccc23)CC1)C1CCN(C(=O)/C=C/c2ccc(F)c(F)c2)CC1` (stereo not drawn) [Example 5, 2-[4-(1H-Indol-3-yl)-cyclohexylamino]-2-[1-(trans-3,4-difluorocinnamoyl)-piperidin-4-yl]-acetamide]: the IC50 stood at 21 nM.

Take `NC(=O)C(N[C@H]1CC[C@H](C2CNc3ccccc32)CC1)C1CCN(C(=O)/C=C/c2cc(F)c(F)c(F)c2)CC1` (stereo partly drawn) [Example 52, 2-{[4-(2,3-dihydro-1H-indol-3-yl)-trans-cyclohexylamino]-2-[1-(trans-3,4,5-trifluorocinnamoyl)-piperidin-4-yl]}-acetamide]: the IC50 came to 950 nM.

On to `COC(=O)C(NC1CCC(c2c[nH]c3ccccc23)CC1)C1CCN(C(=O)/C=C/c2cc(F)c(F)c(F)c2)CC1` (stereo not drawn) [Example 49a, Methyl 2-[4-(1H-indol-3-yl)-trans-cyclohexylamino]-2-[1-(trans-3,4,5-trifluorocinnamoyl)piperidin-4-yl]-acetate], for which the IC50 turned out to be 410 nM.

For the molecule `NC(=O)C(NC1CCC(c2c[nH]c3ccccc23)CC1)C1CCN(C(=O)/C=C/c2ccc3c(c2)CCC3)CC1` (stereo not drawn) [Example 12, 2-[4-(1H-Indol-3-yl)-cyclohexylamino]-2-[1-(trans-3-indan-5-ylprop-2-enoyl)piperidin-4-yl]-acetamide], the half-maximal inhibitory concentration (IC50) stood at 120 nM.

As for `NC(=O)C(NC1CCC(c2c[nH]c3ccccc23)CC1)C1CCN(C(=O)/C=C/c2ccc(C(F)(F)F)cc2)CC1` (stereo not drawn) [Example 13, 2-[4-(1H-Indol-3-yl)-cyclohexylamino]-2-[1-(trans-4-{trifluoromethyl}-cinnamoyl)piperidin-4-yl]-acetamide], the 50% inhibitory concentration (IC50) amounted to 136 nM.

Consider `NC(=O)C(NC1CCC(c2c[nH]c3ccncc23)CC1)C1CCN(C(=O)/C=C/c2ccc(F)cc2)CC1` (single isomer, unassigned) [Example 47b, 2-[4-(1H-pyrrolo[3,2-c]pyridin-3-yl)cyclohexyl]amino-2-[1-(trans-4-fluorocinnamoyl)-piperidin-4-yl]-acetamide], for which the IC50 is 641 nM.

As to `O=C(O)C(N[C@H]1CC[C@H](c2c[nH]c3ccccc32)CC1)C1CCN(C(=O)Nc2ccc(Cl)c(Cl)c2)CC1` (stereo partly drawn) [Example 27, 2-[4-(1H-Indol-3-yl)-trans-cyclohexylamino]-2-[N-(3,4-dichlorophenyl)-piperidine-1-carboxamid-4-yl]-acetic acid hydrochloride], the 50% inhibitory concentration (IC50) is 230 nM.

Regarding `CCOC(=O)c1ccc(NC(=O)N2CCC(C(NC3CCC(c4c[nH]c5ccccc45)CC3)C(N)=O)CC2)cc1` (stereo not shown) [Example 22, 2-[4-(1H-Indol-3-yl)-cyclohexylamino]-2-[N-(4-{ethoxycarbonyl}-phenyl)piperidine-1-carboxamid-4-yl]-acetamide], the half-inhibitory concentration (IC50) is 553 nM.

Regarding `CNC(=O)C(NC1CCC(c2c[nH]c3ccccc23)CC1)C1CCN(C(=O)/C=C/c2cc(F)c(F)c(F)c2)CC1` (stereo not drawn) [Example 53, N-Methyl-2-{[4-(1H-Indol-3-yl)-cyclohexylamino]-2-[1-(trans-3,4,5-trifluorocinnamoyl)-piperidin-4-yl]}-acetamide], the IC50 stood at 984 nM.

Take `CCOC(=O)c1cccc(NC(=O)N2CCC(C(NC3CCC(c4c[nH]c5ccccc45)CC3)C(N)=O)CC2)c1` (stereo not shown) [Example 19, 2-[4-(1H-Indol-3-yl)-cyclohexylamino]-2-[N-(3-{ethoxycarbonyl}-phenyl)piperidine-1-carboxamid-4-yl]-acetamide]: the half-maximal inhibitory concentration (IC50) amounted to 58 nM.
